Test results from ChEMBL document CHEMBL3621169, “Synthesis of tetrazole compounds as a novel type of potential antimicrobial agents and their synergistic effects with clinical drugs and interactions with calf thymus DNA” (Medchemcomm, 2015).
In brackets after ≈: the same amount, converted by molar mass.

Legend:
[1] = system: Cyberlindnera jadinii; assay: Antifungal activity against Candida utilis ATCC 9950 after 24 hrs by micro broth dilution method; assay type: functional; conditions: Williopsis jadinii, ATCC 9950, 24 h
[2] = system: Staphylococcus aureus; assay: Antibacterial activity against Staphylococcus aureus ATCC 25923 after 24 hrs by micro broth dilution method; assay type: functional; conditions: ATCC 25923, 24 h
[3] = system: Micrococcus luteus; assay: Antibacterial activity against Micrococcus luteus ATCC 4698 after 24 hrs by micro broth dilution method; assay type: functional; conditions: ATCC 4698, 24 h
[4] = system: Pseudomonas aeruginosa; assay: Antibacterial activity against Pseudomonas aeruginosa ATCC 27853 after 24 hrs by micro broth dilution method; assay type: functional; conditions: ATCC 27853, 24 h
[5] = Ionization constant, pKa of the compound by UV spectroscopy; assay type: physicochemical
[6] = system: Bacillus spizizenii; assay: Antibacterial activity against Bacillus subtilis ATCC 6633 after 24 hrs by micro broth dilution method; assay type: functional; conditions: ATCC 6633, 24 h
[7] = system: Shigella dysenteriae; assay: Antibacterial activity against Shigella dysenteriae ATCC 51252 after 24 hrs by micro broth dilution method; assay type: functional; conditions: ATCC 51252, 24 h
[8] = system: Candida; assay: Antifungal activity against Candida mycoderma after 24 hrs by micro broth dilution method; assay type: functional
[9] = system: Aspergillus flavus; assay: Antifungal activity against Aspergillus flavus after 24 hrs by micro broth dilution method; assay type: functional
[10] = system: Candida albicans; assay: Antifungal activity against Candida albicans ATCC 90029 after 24 hrs by micro broth dilution method; assay type: functional; conditions: ATCC 90029, 24 h
[11] = n-octanol/water partition coefficient, log P of the compound at 25 deg C after 24 hrs by saturation shake flask based UV spectroscopy; assay type: physicochemical
[12] = system: Staphylococcus aureus; assay: Antibacterial activity against methicillin-resistant Staphylococcus aureus N315 after 24 hrs by micro broth dilution method; assay type: functional; conditions: N315, 24 h
[13] = system: Bacillus sp.; assay: Antibacterial activity against Bacillus proteus ATCC 13315 after 24 hrs by micro broth dilution method; assay type: functional; conditions: Bacillus sp. (in: firmicutes), ATCC 13315, 24 h
[14] = system: Escherichia coli; assay: Antibacterial activity against Escherichia coli DH52 after 24 hrs by micro broth dilution method; assay type: functional; conditions: DH52, 24 h

| SMILES | MIC [1] | MIC [2] | MIC [3] | MIC [4] | pKa [5] | MIC [6] | MIC [7] | MIC [8] | MIC [9] | MIC [10] | logP at 24 h [11] | MIC [12] | MIC [13] | MIC [14] |
| --- | --- | --- | --- | --- | --- | --- | --- | --- | --- | --- | --- | --- | --- | --- |
| CCCCCCCCN(Cc1nnn[nH]1)c1ccccc1 | 128 µg/mL (≈ 445 µM) | 128 µg/mL (≈ 445 µM) | 64 µg/mL (≈ 223 µM) | 256 µg/mL (≈ 891 µM) | 4.83 | 128 µg/mL (≈ 445 µM) | 128 µg/mL (≈ 445 µM) | 32 µg/mL (≈ 111 µM) | 128 µg/mL (≈ 445 µM) | 64 µg/mL (≈ 223 µM) | 2.24 | 128 µg/mL (≈ 445 µM) | 128 µg/mL (≈ 445 µM) | 64 µg/mL (≈ 223 µM) |
| Fc1ccccc1CN(Cc1nnn[nH]1)c1ccccc1 | 32 µg/mL (≈ 113 µM) | 64 µg/mL (≈ 226 µM) | 64 µg/mL (≈ 226 µM) | 64 µg/mL (≈ 226 µM) | 4.22 | 32 µg/mL (≈ 113 µM) | 128 µg/mL (≈ 452 µM) | 16 µg/mL (≈ 56.5 µM) | 64 µg/mL (≈ 226 µM) | 32 µg/mL (≈ 113 µM) | 1.28 | 64 µg/mL (≈ 226 µM) | 64 µg/mL (≈ 226 µM) | 64 µg/mL (≈ 226 µM) |
| CCCCCCN(Cc1nnn[nH]1)c1ccccc1 | 64 µg/mL (≈ 247 µM) | 128 µg/mL (≈ 494 µM) | 128 µg/mL (≈ 494 µM) | 128 µg/mL (≈ 494 µM) | 4.78 | 128 µg/mL (≈ 494 µM) | 128 µg/mL (≈ 494 µM) | 64 µg/mL (≈ 247 µM) | 64 µg/mL (≈ 247 µM) | 64 µg/mL (≈ 247 µM) | 2.18 | 256 µg/mL (≈ 987 µM) | 128 µg/mL (≈ 494 µM) | 128 µg/mL (≈ 494 µM) |
| Cc1ccc(N(Cc2nnn[nH]2)Cc2ccc(Cl)cc2Cl)cc1 | 16 µg/mL (≈ 45.9 µM) | 32 µg/mL (≈ 91.9 µM) | 32 µg/mL (≈ 91.9 µM) | 32 µg/mL (≈ 91.9 µM) | 4.26 | 64 µg/mL (≈ 184 µM) | 32 µg/mL (≈ 91.9 µM) | 8 µg/mL (≈ 23 µM) | 16 µg/mL (≈ 45.9 µM) | 16 µg/mL (≈ 45.9 µM) | 1.99 | 16 µg/mL (≈ 45.9 µM) | 32 µg/mL (≈ 91.9 µM) | 16 µg/mL (≈ 45.9 µM) |
| Cc1ccc(N(Cc2nnn[nH]2)Cc2ccc(F)cc2F)cc1 | 32 µg/mL (≈ 101 µM) | 64 µg/mL (≈ 203 µM) | 64 µg/mL (≈ 203 µM) | 32 µg/mL (≈ 101 µM) | 4.23 | 64 µg/mL (≈ 203 µM) | 64 µg/mL (≈ 203 µM) | 16 µg/mL (≈ 50.7 µM) | 32 µg/mL (≈ 101 µM) | 32 µg/mL (≈ 101 µM) | 1.42 | 64 µg/mL (≈ 203 µM) | 64 µg/mL (≈ 203 µM) | 64 µg/mL (≈ 203 µM) |
| COc1ccc(N(Cc2nnn[nH]2)Cc2ccc(Cl)cc2Cl)cc1 | 8 µg/mL (≈ 22 µM) | 32 µg/mL (≈ 87.9 µM) | 32 µg/mL (≈ 87.9 µM) | 32 µg/mL (≈ 87.9 µM) | 4.29 | 32 µg/mL (≈ 87.9 µM) | 32 µg/mL (≈ 87.9 µM) | 8 µg/mL (≈ 22 µM) | 16 µg/mL (≈ 43.9 µM) | 16 µg/mL (≈ 43.9 µM) | 1.58 | 64 µg/mL (≈ 176 µM) | 32 µg/mL (≈ 87.9 µM) | 32 µg/mL (≈ 87.9 µM) |
| Clc1ccc(CN(Cc2nnn[nH]2)c2ccccc2)cc1 | 32 µg/mL (≈ 107 µM) | 64 µg/mL (≈ 214 µM) | 64 µg/mL (≈ 214 µM) | 64 µg/mL (≈ 214 µM) | 4.38 | 32 µg/mL (≈ 107 µM) | 64 µg/mL (≈ 214 µM) | 16 µg/mL (≈ 53.4 µM) | 32 µg/mL (≈ 107 µM) | 16 µg/mL (≈ 53.4 µM) | 1.39 | 128 µg/mL (≈ 427 µM) | 32 µg/mL (≈ 107 µM) | 32 µg/mL (≈ 107 µM) |
| Fc1cccc(CN(Cc2nnn[nH]2)c2ccccc2)c1 | 16 µg/mL (≈ 56.5 µM) | 64 µg/mL (≈ 226 µM) | 64 µg/mL (≈ 226 µM) | 64 µg/mL (≈ 226 µM) | 4.19 | 32 µg/mL (≈ 113 µM) | 32 µg/mL (≈ 113 µM) | 32 µg/mL (≈ 113 µM) | 32 µg/mL (≈ 113 µM) | 32 µg/mL (≈ 113 µM) | 1.29 | 64 µg/mL (≈ 226 µM) | 64 µg/mL (≈ 226 µM) | 32 µg/mL (≈ 113 µM) |
| COc1ccc(N(Cc2nnn[nH]2)Cc2ccc(F)cc2F)cc1 | 16 µg/mL (≈ 48.3 µM) | 64 µg/mL (≈ 193 µM) | 64 µg/mL (≈ 193 µM) | 64 µg/mL (≈ 193 µM) | 4.31 | 64 µg/mL (≈ 193 µM) | 64 µg/mL (≈ 193 µM) | 16 µg/mL (≈ 48.3 µM) | 32 µg/mL (≈ 96.6 µM) | 32 µg/mL (≈ 96.6 µM) | 1.37 | 64 µg/mL (≈ 193 µM) | 64 µg/mL (≈ 193 µM) | 64 µg/mL (≈ 193 µM) |
| Clc1ccc(CN(Cc2nnn[nH]2)c2ccccc2)c(Cl)c1 | 8 µg/mL (≈ 23.9 µM) | 32 µg/mL (≈ 95.7 µM) | 64 µg/mL (≈ 191 µM) | 32 µg/mL (≈ 95.7 µM) | 4.54 | 32 µg/mL (≈ 95.7 µM) | 64 µg/mL (≈ 191 µM) | 8 µg/mL (≈ 23.9 µM) | 16 µg/mL (≈ 47.9 µM) | 16 µg/mL (≈ 47.9 µM) | 1.67 | 64 µg/mL (≈ 191 µM) | 32 µg/mL (≈ 95.7 µM) | 16 µg/mL (≈ 47.9 µM) |
| CCCCCCCCCCN(Cc1nnn[nH]1)c1ccccc1 | 16 µg/mL (≈ 50.7 µM) | 64 µg/mL (≈ 203 µM) | 32 µg/mL (≈ 101 µM) | 128 µg/mL (≈ 406 µM) | 4.87 | 32 µg/mL (≈ 101 µM) | 64 µg/mL (≈ 203 µM) | 32 µg/mL (≈ 101 µM) | 32 µg/mL (≈ 101 µM) | 32 µg/mL (≈ 101 µM) |  | 32 µg/mL (≈ 101 µM) | 64 µg/mL (≈ 203 µM) | 32 µg/mL (≈ 101 µM) |
| Fc1ccc(CN(Cc2nnn[nH]2)c2ccccc2)c(F)c1 | 16 µg/mL (≈ 53.1 µM) | 64 µg/mL (≈ 212 µM) | 64 µg/mL (≈ 212 µM) | 32 µg/mL (≈ 106 µM) | 4.13 | 64 µg/mL (≈ 212 µM) | 64 µg/mL (≈ 212 µM) | 16 µg/mL (≈ 53.1 µM) | 32 µg/mL (≈ 106 µM) | 64 µg/mL (≈ 212 µM) | 1.36 | 32 µg/mL (≈ 106 µM) | 64 µg/mL (≈ 212 µM) | 64 µg/mL (≈ 212 µM) |
| Fc1ccc(CN(Cc2nnn[nH]2)c2ccccc2)cc1 | 16 µg/mL (≈ 56.5 µM) | 64 µg/mL (≈ 226 µM) | 256 µg/mL (≈ 904 µM) | 64 µg/mL (≈ 226 µM) | 4.2 | 64 µg/mL (≈ 226 µM) | 64 µg/mL (≈ 226 µM) | 16 µg/mL (≈ 56.5 µM) | 32 µg/mL (≈ 113 µM) | 32 µg/mL (≈ 113 µM) | 1.26 | 64 µg/mL (≈ 226 µM) | 128 µg/mL (≈ 452 µM) | 64 µg/mL (≈ 226 µM) |
| Clc1ccc(CN(Cc2nnn[nH]2)c2ccccc2)cc1Cl | 32 µg/mL (≈ 95.7 µM) | 128 µg/mL (≈ 383 µM) | 128 µg/mL (≈ 383 µM) | 64 µg/mL (≈ 191 µM) | 4.49 | 64 µg/mL (≈ 191 µM) | 64 µg/mL (≈ 191 µM) | 16 µg/mL (≈ 47.9 µM) | 32 µg/mL (≈ 95.7 µM) | 64 µg/mL (≈ 191 µM) | 1.63 | 128 µg/mL (≈ 383 µM) | 128 µg/mL (≈ 383 µM) | 64 µg/mL (≈ 191 µM) |
